A short description of the data set: Solubility of Compound X, Ph. Eur. 6 / USP 33 descriptive terms. The format is physicochemical. From the text: In this specification, we are adopting the definitions of solubility from the classification in the European Pharmacopeia 6th Edition and the United States Pharmacopeia 33 (Reference Tables: Description and Solubility):
Further increase in pH results in solubility decrease. […] The pH-dependent solubility profile of Compound X presents certain challenges to the development of pharmaceutical formulations, namely for its dissolution.

Molecules are shown by their SMILES.

As to `Fc1cc(F)c2c(c1)C[C@@H](n1c(CCNCc3ccccc3)c[nH]c1=S)CO2` [Compound X], the Solubility entry (N,N-methylpyrrolidone) is “sparingly soluble”; the Solubility result (acetone) is “slightly soluble”; the Solubility result (acetonitrile) is on record as “very slightly soluble”; the Solubility result (acidified acetonitrile) is “sparingly soluble”; the Solubility result (acidified methanol) was “sparingly soluble”; the Solubility entry (acidified water (pH 1.2-2.0)) is reported as “sparingly soluble”. Besides, the Solubility entry is, setting by setting: (chloroform) “very slightly soluble”; (cyclohexane) “insoluble”; (dichloromethane) “slightly soluble”; (dimethyl sulfoxide) “sparingly soluble”; (dimethylformamide) “sparingly soluble”; (ethanol) “practically insoluble”. For the same molecule, the Solubility entry is, setting by setting: (ethyl acetate) “very slightly soluble”; (iso-octane) “insoluble”; (isopropanol) “insoluble”; (isopropyl acetate) “very slightly soluble”; (methanol) “very slightly soluble”; (methyl ethyl ketone) “slightly soluble”. Further, the Solubility result was “sparingly soluble” (tetrahydrofuran), “very slightly soluble” (toluene) and “insoluble” (water). The “Medium of maximum solubility” value (aqueous medium) is listed as “HCl 0.01 (pH 2.0)”. In addition, the “pH dependence of solubility in aqueous medium” value (aqueous medium) was “decreases as the pH increases”.

(Values after patent publication US20210169856A1, “FORMULATIONS COMPRISING DOPAMINE-B-HYDROXYLASE INHIBITORS AND METHODS FOR THEIR PREPARATION” (BIAL - PORTELA & CA, S.A., priority 2018, published 2021).)
